Values after ≈ are worked out from the molar mass of the structure shown. “Also recorded” adds a separate entry of the source. Read-outs that look alike come from different tables or passages of the source. Where a SMILES comes first, the peptide text is derived from it. [ ]: non-standard residue; d: D form. Sar = CNCC(=O)O

Consider ten compounds from patent publication US20130190324A1, “TOPICAL OCULAR DRUG DELIVERY” (The Regents of the University of Colorado, a body corporate, priority 2011, published 2013).

The test system of data set [1] is New Zealand white rabbit cornea. Briefly: In vitro transport across rabbit cornea (Ussing chamber). Type of data set: in vitro ADME. As for the experimental part:
(§1) In vitro transport of […], and GFX-LYS were carried out across the New Zealand white rabbit cornea and sclera-choroid-[…]). Rabbit eyes were obtained within 24 hr of harvesting from Pel-Freez Biologicals (Rogers, Ark.) and shipped overnight in Hank's balanced salt solution on wet ice. Eyes were used immediately upon arrival. Eyes were washed with assay buffer and cleaned from the muscle and unwanted tissues. […] The small part of the sclera left with cornea helps in mounting the cornea on Ussing chambers. For isolation of the SCRPE, anterior and posterior parts were separated by a circumferential cut at the limbus. […] After separation of the retina, the eye cup was flattened with small cuts around the globe. […] A circulating water bath was used to maintain the temperature at 37° C. during the transport study. The pH of the assay buffer was maintained at 7.4 using 95% air-5% CO2 aeration which also helps in stirring of bathing solutions. Samples were collected (200 μL) from the receiver side every 30 minute for 3 hr and the lost volume was replaced with fresh assay buffer pre-equilibrated at 37° C. GFX levels were analyzed using an LC-MS/MS assay. […] GFX concentrations in the transport study and ocular tissue samples were analyzed using a validated LC-MS/MS method. […] Chromatographic separation of GFX and the internal standard moxifloxacin was performed on Obelisc C18 column (2.1×10 mm, 3 μm). Elution of analytes was performed using linear gradient elution with mobile phase consisting of 5 mM ammonium formate (pH 3.5) and acetonitrile (pH 3.5) with a flow rate of 300 μl/min and total run time of 6 min.

Data set [2] has as its system New Zealand white rabbit sclera-choroid-RPE (SCRPE). Briefly: In vitro transport across rabbit sclera-choroid-RPE (Ussing chamber). Type of data set: in vitro ADME. Conditions: for cumulative % transport / permeability compared with GFX (in words): rabbit SCRPE. As to the method: as §1
For the next data set, the system named is conjunctiva. The data set is described as follows: In vitro transport of GFX prodrugs across conjunctiva. Type of data set: in vitro ADME, Rabbit.
Data set [3] has as its system human sclera-choroid-RPE (SCRPE). The data set is described as follows: In vitro transport of transporter substrate cassette across human sclera-choroid-RPE. As for the experimental part: In vitro transport studies across human cornea and sclera-choroid-RPE (SCRPE) were carried out according to previously published method using the cassette dosing approach. Briefly, cassette of drug transporter substrate including Gly-Sar (PEPT), L-tryptophan (ATB^0+), MPP^+ (OCT), and phenyl acetic acid (MCT) at concentration of 100 μM in assay buffer was prepared. Briefly, the human eyes were washed with assay buffer and cleaned from muscle and conjunctiva tissues, and anterior and posterior parts were separated by giving circumferential cut behind the limbus. Small sclera part was left with cornea, which helps in mounting of cornea on Ussing chambers. Neural retina was separated from the choroid-RPE by filling the eye cup with assay buffer, and floating retina was collected. After separation of retina, eye cup was divided into two rectangular pieces (˜1.5×1.5 cm) of sclera-choroid-RPE. Isolated tissues were mounted on modified Ussing chambers (Navicyte, Sparks, Nev.) such that the episcleral side of SCRPE or epithelial side of cornea was facing the donor chamber and retinal side or endothelial side of cornea is facing the receiver chamber. To study the effect of directionality on transport, one set of Ussing chambers mounted so that sclera side facing the donor side and another set was mounted so that choroid-RPE facing the donor side. The effect of directionality of transport across cornea was not evaluated. The chambers were filled with 1.5 ml of assay buffer with (donor side) or without (receiver side) the cocktail of drug transporter substrates. For study of effect of transporter inhibitors, cocktail mixture (500 μM) of transporter inhibitor was added on both donor and acceptor side.
During the transport study, the bathing fluids were maintained at 37° C. using a circulating warm water and pH 7.4 using 95% air-5% CO2 aeration. Samples were collected (200 μL) form receiver side every hour for 6 hr and the lost volume was compensated with fresh assay buffer pre-equilibrated at 37° C. The drug levels were analyzed using a LC-MS/MS assay. Permeation data were corrected for dilution of the receiver solution with sample volume replenishment.
Analytes concentrations in transport study samples were analyzed using LC-MS/MS method after 5-fold dilution with acetonitrile to reduce the salt concentrations. Cassette analysis method was developed for simultaneous analysis of Gly-Sar, L-tryptophan and MPP^+. Phenyl acetic acid was analyzed separately in negative ionization method and normal phase separation method. An API-3000 triple quadrupole mass spectrometry (Applied Biosystems, Foster City, Calif., USA) coupled with a PerkinElmer series-200 liquid chromatography (Perkin Elmer, Walthm, Mass., USA) system was used for analysis. Gly-Sar, L-tryptophan and MPP^+ were separated on Supelco C-5 column (2.1×10 mm, 3 μm) using water containing 0.1% formic acid (A) and acetonitrile:methanol (50:50 v/v) containing 0.1% formic acid (B) as mobile phase and a linear gradient elution at a flow rate of 0.3 ml/min with total run time of 9 min. Phenyl acetic acid was separated in normal phase separation mode using Obelisc-N silica column (2.1×10 mm, 3 μM) using 5 mM ammonium formate, pH 3.5 (A) and acetonitrile (B) as mobile phase in linear gradient mode at flow rate of 0.3 ml with total run time of 6 min. Gly-Sar, L-tryptophan, and MPP^+ were analyzed in positive ionization mode with following multiple reaction monitoring (MRM) transitions: 147→90 (Gly-Sar); 205→188 (L-tryptophan); 170→128 (MPP^+). Phenyl acetic acid was analyzed in negative ionization mode with following multiple reaction monitoring (MRM) transitions: 135→91 (Phenyl acetic acid).

In data set [4] the test system is calf sclera-choroid-RPE (SCRPE). The data set is described as follows: In vitro transport of substrate cassette across normoxic and hypoxic calf SCRPE. The text has this: (§2) Animals used in this study were those that were sacrificed as part of other experiments approved by the Institutional Animal Care Committee of the Colorado State University (Fort Collins) and University of Colorado Anschutz Medical campus. Hypoxic and normoxic calf eyes were obtained from the Department of Physiology, School of Veterinary Medicine, Colorado State University (Fort Collins, Colo.). Briefly, 1 day old male Holstein calves (n=4) were kept in hypobaric hypoxic chambers (PB=445 mm Hg) for 2 weeks. For control experiment, age matched calves (n=4) were kept at ambient altitude (PB=650 mm Hg) and normoxia for two weeks. Hypoxic and normoxic rat eyes were obtained from the Department of Medicine, University of Colorado Anschutz Medical campus (Aurora, Colo.). Sprague Dawley rats (n=4) were maintained in hypobaric hypoxic chambers (PB=380 mm Hg) for 6 weeks and age matched controls were kept at ambient pressure and normoxia.
(§3) In vitro transport studies across hypoxic and control calf cornea and sclera-choroid-RPE (SCRPE) were carried using cassette dosing approach. A cassette of drug transporter substrates, Gly-Sar (PEPT), valacylovir (ATB^0+), MPP^+ (OCT), and phenylacetic acid (MCT) at a concentration of 100 μM each in assay buffer was prepared. Briefly, the calf eyes were harvested immediately after euthanasia and transferred to the laboratory on ice. Upon arrival in the lab, the eyes were washed with assay buffer and cleaned from muscle and unwanted tissues. Anterior and posterior parts were separated by circumferential cut at the limbus. Vitreous was removed and the neural retina was separated from the choroid-RPE by filling the eye cup with assay buffer. The retina afloat in assay buffer was isolated and the eye cup was divided into two pieces (˜1.5×1.5 cm) of sclera-choroid-RPE. Isolated tissues were mounted on modified Ussing chambers (Navicyte, Sparks, Nev.) such that the episcleral side of SCRPE or epithelial side of cornea was facing the donor chamber and retinal side or endothelial side of the cornea was facing the receiver chamber. The chambers were filled with 1.5 ml of assay buffer at 37° C. with (donor side) or without (receiver side) the cocktail of drug transporter substrates. For the study of effect of transporter inhibitors, cocktail mixture (500 μM) of transporter inhibitors was added on both donor and acceptor sides.
(§4) During the transport study, the bathing fluids were maintained at 37° C. using circulating warm water. The pH of the fluids was maintained at pH 7.4 using 95% air-5% CO2 aeration. Samples were collected (200 μL) from receiver side every hour for 6 hours and the removed volume was replaced with fresh assay buffer pre-equilibrated to 37° C. Drug levels were analyzed using a LC-MS/MS assay. Permeation data were corrected for dilution of the receiver concentrations with sample volume replenishment.
(§5) Analyte concentrations in transport study samples were measured using LC-MS/MS method after 5-fold dilution with acetonitrile to reduce the salt concentrations. A cassette analysis method was developed for simultaneous analysis of Gly-Sar, valacylovir, and MPP Phenyl acetic acid was analyzed separately with a negative ionization method and a normal phase separation method. An API-3000 triple quadrupole mass spectrometry (Applied Biosystems, Foster City, Calif., USA) coupled with a PerkinElmer series-200 liquid chromatography (Perkin Elmer, Waltham, Mass., USA) system was used for analysis. Gly-Sar, valacylovir and MPP were separated on Supelco C-5 column (2.1×10 mm, 3 μm) using water containing 0.1% formic acid (A) and acetonitrile:methanol (50:50 v/v) containing 0.1% formic acid (B) as mobile phase. A linear gradient elution at a flow rate of 0.3 ml/min with a total run time of 9 min was employed. Phenyl acetic acid was separated in normal phase separation mode on Obelisc-N silica column (2.1×10 mm, 3 μM) using 5 mM ammonium formate at pH 3.5 (A) and acetonitrile (B) as mobile phase.

In a further data set the test system is calf cornea. Briefly: In vitro transport of substrate cassette across normoxic and hypoxic calf cornea.
Text: as §2, §3, §4, §5

As usually defined, the solubility is the dissolved amount per volume that the medium holds. A higher solubility goes with much dissolved substance. Consider `Cc1ccc(-c2cc(C(F)(F)F)nn2-c2ccc(S(=O)(=O)NC(=O)C(N)CCCNC(=N)N)cc2)cc1` (stereo not shown) [CXB-ARG], for which the solubility in “physchem” (water) and in the data set “physchem” (water for injection) was 35 µg/mL (≈ 65.1 µM) each time.
As to `Cc1ccc(-c2cc(C(F)(F)F)nn2-c2ccc(S(=O)(=O)NC(=O)C(N)CC(C)C)cc2)cc1` (stereo not shown) [CXB-LEU], the solubility in the data set “physchem” (water for injection) is 16 µg/mL (≈ 32.4 µM).
As for `Cc1ccc(-c2cc(C(F)(F)F)nn2-c2ccc(S(=O)(=O)NC(=O)C(N)CCCCN)cc2)cc1` (stereo not shown) [CXB-LYS, 2,6-diamino-N-(4-(5-p-tolyl-3-(trifluoromethyl)-1H-pyrazol-1-yl)phenylsulfonyl)hexanamide], the solubility in the data set “physchem” (water) and in “physchem” (water for injection) was 50 µg/mL (≈ 98.1 µM) throughout.
For `Cc1ccc(-c2cc(C(F)(F)F)nn2-c2ccc(S(=O)(=O)NC(=O)CCCC(=O)O)cc2)cc1` [CXB-MCT, 5-oxo-5-(4-(5-(p-tolyl)-3-(trifluoromethyl)-1H-pyrazol-1-yl)phenylsulfonamido)pentanoic acid], in the data set “physchem” (water for injection), the solubility amounted to 620 µg/mL (≈ 1250 µM).
On the same count and under the same terms, with `Cc1ccc(-c2cc(C(F)(F)F)nn2-c2ccc(S(=O)(=O)NC(=O)CCCN(C)C)cc2)cc1` [CXB-OCT, 4-(dimethylamino)-N-((4-(5-(p-tolyl)-3-(trifluoromethyl)-1H-pyrazol-1-yl)phenyl)sulfonyl)butanamide] the figure was 3220 µg/mL (≈ 6510 µM); with `COc1c(N2CCN(C(=O)C(N)CC(C)C)C(C)C2)c(F)cc2c(=O)c(C(=O)O)cn(C3CC3)c12` (stereo not shown) [GFX-LEU, 7-(4-(2-amino-4-methylpentanoyl)-3-methylpiperazin-1-yl)-1-cyclopropyl-6-fluoro-8-methoxy-4-oxo-1,4-dihydroquinoline-3-carboxylic acid], 2160 µg/mL (≈ 4420 µM).
Regarding `COc1c(N2CCN(C(=O)C(N)CCCCN)C(C)C2)c(F)cc2c(=O)c(C(=O)O)cn(C3CC3)c12` (stereo not shown) [GFX-LYS, 1-cyclopropyl-7-(4-(2,6-diaminohexanoyl)-3-methylpiperazin-1-yl)-6-fluoro-8-methoxy-4-oxo-1,4-dihydroquinoline-3-carboxylic acid], the “cumulative % transport / permeability compared with GFX (in words)” value in data set [1] and in data set [2] was “not significantly different from GFX” throughout. In addition, the solubility in the data set “physchem” (water) and in the data set “physchem” (water for injection) was 48000 µg/mL (≈ 95300 µM) in each case.
On to `COc1c(N2CCNC(C)C2)c(F)cc2c(=O)c(C(=O)NCCCC(=O)O)cn(C3CC3)c12` (stereo not shown) [GFX-MCT, 4-(1-cyclopropyl-6-fluoro-8-methoxy-7-(3-methylpiperazin-1-yl)-4-oxo-1,4-dihydroquinoline-3-carboxamido)butanoic acid], for which the “cumulative % transport / permeability compared with GFX (in words)” value in data set [1] and in data set [2] was “significantly (p<0.01) higher than GFX” in each case. The “transport in presence of nicotinic acid (competitive inhibitor of MCT)” value in data set [2] (SCRPE) was “not across SCRPE”; in the data set on conjunctiva it was “significantly inhibited; also recorded: only inhibited by nicotinic acid across conjunctiva”. In “physchem” (water for injection), this compound had a solubility of 3010 µg/mL (≈ 6540 µM). The “cumulative % transport compared with GFX (in words)” value in the data set on conjunctiva is reported as “significantly (p<0.01) higher than GFX”.
As for `CN(CC(=O)O)C(=O)CN` [Gly-Sar] (H-Gly-[Sar]-OH), the “sclera to retina transport higher than retina to sclera transport” value in data set [3] was 1.6-2.0 fold. Also, the “apparent permeability (Papp) across hypoxic vs normoxic tissue (in words)” value in data set [4] was “significantly higher across normoxic SCRPE than hypoxic SCRPE”; with calf cornea it was “significantly higher across normoxic cornea than hypoxic cornea”.
For `N[C@@H](Cc1c[nH]c2ccccc12)C(=O)O` [L-tryptophan], the “sclera to retina transport higher than retina to sclera transport” value in data set [3] (human, 6 h, 100 μM, pH 7.4) is 1.6-2.0 fold.
